Data as given in patent publication US5602146A, “4-iminoquinolines, processes for their preparation, and their use” (Hoechst Aktiengesellschaft, priority 1992, dated 1997).
Values after ≈ are worked out from the molar mass of the structure shown.

How the values were obtained:
[1] = tested on: HIV; assay: Testing of preparations against HIV in a cell culture (T-Cell culture assay); format: cell-based; details: Human immunodeficiency virus 1, 72 h; HIV-infected lymphocytes, 37° C. for 3 days; lowest concentration at which no giant cells occurred; read-out: T-Cell culture assay Minimum inhibitory concentration
Method: Testing of preparations against HIV in a cell culture
Description of the method
The complete medium additionally contains 20% of fetal calf serum and 40 IU/ml of recombinant interleukin 2. Cells:
Lymphocytes isolated from fresh donor blood by means of Ficol® gradient centrifugation are cultured, with addition of […] of phytohemagglutinin (Wellcome) in the complete medium at 37° C. under 5% of CO2 for 36 hours. After addition of 10% of dimethyl sulfoxide, the cells are frozen at a cell density of 5×10^6 and stored in liquid nitrogen. For the experiment, the cells are thawed, washed in RPMI medium and cultured in the complete medium for 3-4 days.
The test preparations were dissolved in dimethyl sulfoxide in a concentration of 16.7 mg/ml and diluted to 1 mg/ml in complete medium.
0.4 ml of medium was initially introduced into 24-well multiwell dishes. After addition of 0.1 ml of the dissolved preparation into the upper row of the dish, a geometric dilution series was produced by transferring in each case 0.1 ml. Preparation-free controls always contained 0.4 ml of complete medium with 0.5% of dimethyl sulfoxide.
Lymphocyte cultures having a cell count of 5×10^5 cells/ml were infected by addition of 1/50 of the volume of supernatant from HIV-infected lymphocyte cultures. The titer of these culture supernatants was determined by end point dilution with 1-5×10^6 infectious units/ml. After incubation at 37° C. for 30 minutes, the infected lymphocytes were centrifuged off and taken up again in the same volume of medium. In each case 0.6 ml of this cell suspension was introduced into each of the depression walls of the test plate. The batches were incubated at 37° C. for 3 days.
The infected cell cultures were examined under the microscope for the presence of giant cells, which indicate active multiplication of the virus in the culture. The lowest concentration of preparation at which no giant cells occurred was determined as the inhibitory concentration against HIV. As a control, the supernatants from the culture plates were investigated for the presence of the HIV antigen with the aid of an HIV antigen test in accordance with the manufacturer's information (Organon).

[2] = molecular target: T1, HIV "Reverse Transcriptase" (Human immunodeficiency virus type 1 group M subtype B, UniProt P04585); assay: Inhibition of HIV "Reverse Transcriptase" (Scintillation Proximity Assay); format: biochemical; details: RT-SPA, RT from HIV cloned in E. coli, 60 minutes (37° C.)
T1 construct: purchased HT-Biotechnology Ltd., Cambridge, UK; host or cells: E. coli
Method: Investigation of the substances for inhibition of HIV "Reverse Transcriptase"
The activity of reverse transcriptase (RT) was determined with the aid of a "Scintillation Proximity Assay" (SPA). The reagent kit for the RT-SPA was obtained from Amersham/Buchler (Braunschweig). The enzyme RT (from HIV cloned in E. coli) originated from HT-Biotechnology Ltd., Cambridge, UK.
The test was carried out in accordance with the method manual of the manufacturer Amersham--with the following modifications:
bovine serum albumin was added to the "assay" buffer to the final concentration of 0.5 mg/ml.
the test was carried out in Eppendorf reaction vessels with a batch volume of […].
the RT concentrate of the manufacturer (5000 U/ml) was diluted to an activity of 15 U/ml in tris-HCl buffer 20 mM; pH 7.2; 30% of glycerol.
the incubation time for the batches was 60 minutes (37° C.).
after the reaction had been stopped and after "development" with the bead suspension, […] of the batch were transferred to 4.5 ml of tris-HCl buffer, 10 mM; pH 7.4; 0.15M NaCl, and the tritium activity was measured in a β-counter.
Testing of the substances:
For a preliminary test of the inhibitor activity, the substances were dissolved in dimethyl sulfoxide (stock solution c=1 mg/ml) and tested in a dilution in dimethyl sulfoxide of 10^-1, 10^-2, 10^-3 and the like to determine IC50 values, the inhibitor stock solutions were further diluted in tris-HCl buffer, 50 mM, pH 8 and tested in suitable concentrations. The concentration associated with 50% enzyme inhibition was determined from the graph of RT activity against Log Cinh.

CCON=C1c2cc(Cl)ccc2NC(=O)C1(C)C [Example 2, anti-6-Chloro-3,3-dimethyl-4-(ethyloxyimino)-1,3-dihydroquinolin-2-one]
MIC [1]: 0.2 µg/mL (≈ 0.75 µM)
IC50 [2]: 82.5 nM

CCON=C1c2cc(Cl)ccc2NC(=S)C1(C)C [Example 3, anti-6-Chloro-3,3-dimethyl-4-(ethyloxyimino)-l,3-dihydroquinoline-2-thione]
MIC [1]: 0.008 µg/mL (≈ 0.0283 µM)
IC50 [2]: 14.1 nM

CCON=C1c2cc(Cl)ccc2NC(=O)C1(C)C [Example 4, syn-6-Chloro-3,3-dimethyl-4-(ethyloxyimino)-l,3-dihydroquinolin-2-one]
IC50 [2]: 37.5 to 375 nM

CCON=C1c2cc(Cl)ccc2NC(=S)C1(C)C [Example 5, syn-6-Chloro-3,3-dimethyl-4-(ethyloxyimino)-1,3-dihydroquinoline-2-thione]
Reverse transcriptase assay IC50 [2]: 0.001 to 0.01 µg/mL

CC(C)ON=C1c2cc(Cl)ccc2NC(=O)C1(C)C [Example 6, anti-6-Chloro-3,3-dimethyl-4-(isopropyloxyimino)-l,3dihydroquinolin-2-one]
MIC [1]: 0.008 µg/mL (≈ 0.0285 µM)
IC50 [2]: 3.56 to 35.6 nM

CC(C)ON=C1c2cc(Cl)ccc2NC(=S)C1(C)C [Example 7, anti-6-Chloro-3,3-dimethyl-4-(isopropyloxyimino)-l,3-dihydroquinoline-2-thione]
MIC [1]: 0.008 µg/mL (≈ 0.027 µM)
IC50 [2]: 20.2 nM

CCCON=C1c2cc(Cl)ccc2NC(=O)C1(C)C [Example 8, anti-6-Chloro-3,3-dimethyl-4-(n-propyloxyimino)-l,3-dihydroquinolin-2-one]
MIC [1]: 0.2 µg/mL (≈ 0.712 µM)
IC50 [2]: 35.6 to 356 nM

CCCON=C1c2cc(Cl)ccc2NC(=S)C1(C)C [Example 9, anti-6-Chloro-3,3-dimethyl-4-(n-propyloxyimino)-1,3dihydroquinoline-2-thion]
MIC [1]: 0.04 µg/mL (≈ 0.135 µM)
IC50 [2]: 3.37 to 33.7 nM

CC1(C)C(=O)Nc2ccc(Cl)cc2C1=NOCc1ccccc1 [Example 10A, anti-4-(Benzyloxyimino)-6-chloro-3,3-dimethyl-1,3-dihydroquinolin-2-one]
IC50 [2]: > 30400 nM

CC1(C)C(=O)N(Cc2ccccc2)c2ccc(Cl)cc2C1=NOCc1ccccc1 [Example 10B, anti-(1-Benzyl)-4-(benzyloxyimino)-6-chloro-3,3-dimethyl-1,3-dihydroquinolin-2-one]
IC50 [2]: > 23900 nM

CC1(C)C(=S)Nc2ccc(Cl)cc2C1=NOCc1ccccc1 [Example 16]
IC50 [2]: 290 to 2900 nM

CC1(C)C(=O)Nc2ccc(Cl)cc2C1=NOCc1ccccc1[N+](=O)[O-] [Example 20]
IC50 [2]: 2680 to 26800 nM

CC1(C)C(=S)Nc2ccc(Cl)cc2C1=NOCc1ccccc1[N+](=O)[O-] [Example 21]
IC50 [2]: 256 to 2560 nM

CC1(C)C(=O)Nc2ccc(Cl)cc2C1=NOCc1cccc(Cl)c1 [Example 23]
IC50 [2]: 275 to 2750 nM

CC1(C)C(=S)Nc2ccc(Cl)cc2C1=NOCc1cccc(Cl)c1 [Example 24]
IC50 [2]: 26.4 to 264 nM

CC1(C)C(=S)Nc2ccc(Cl)cc2C1=NOCc1ccc(Cl)cc1 [Example 27]
IC50 [2]: 2640 to 26400 nM

CC1(C)C(=O)Nc2ccc(Cl)cc2C1=NOCc1ccccc1Cl [Example 29]
IC50 [2]: 2750 to 27500 nM

CC1(C)C(=S)Nc2ccc(Cl)cc2C1=NOCc1ccccc1Cl [Example 30]
IC50 [2]: 264 to 2640 nM

COCCON=C1c2cc(Cl)ccc2NC(=O)C1(C)C [Example 32]
MIC [1]: 1 µg/mL (≈ 3.37 µM)
IC50 [2]: 337 to 3370 nM

COCCON=C1c2cc(Cl)ccc2NC(=S)C1(C)C [Example 33]
MIC [1]: 0.2 µg/mL (≈ 0.639 µM)
IC50 [2]: ~32 nM

CON=C1c2cc(Cl)ccc2NC(=O)C1(C)C [Example 34]
IC50 [2]: 39.6 to 396 nM

CON=C1c2cc(Cl)ccc2NC(=S)C1(C)C [Example 35]
IC50 [2]: 3.72 to 37.2 nM

CCC1C(=O)Nc2ccc(Cl)cc2C1=NO (stereo not drawn) [Example 38]
IC50 [2]: 4190 to 41900 nM

CCON=C1c2cc(Cl)ccc2NC(=O)C1CC (stereo not drawn) [Example 39]
MIC [1]: 1 µg/mL (≈ 3.75 µM)
IC50 [2]: 37.5 to 375 nM

CCC1C(=O)Nc2ccc(Cl)cc2C1=NOC(C)C (stereo not drawn) [Example 40]
IC50 [2]: 35.6 to 356 nM

CCC1C(=N)c2cc(Cl)ccc2NC1=S (stereo not drawn) [Example 42]
IC50 [2]: 4190 to 41900 nM

CCON=C1c2cc(OC)ccc2NC(=S)C1(C)C [Example 43]
IC50 [2]: 3.59 to 35.9 nM

COc1ccc2c(c1)C(=NOC(C)C)C(C)(C)C(=O)N2 [Example 44]
IC50 [2]: ~36.2 nM

COc1ccc2c(c1)C(=NOC(C)C)C(C)(C)C(=S)N2 [Example 45]
IC50 [2]: 3.42 to 34.2 nM

C=CCON=C1c2cc(Cl)ccc2NC(=O)C1(C)C [Example 47]
IC50 [2]: 35.9 to 359 nM

C=CCON=C1c2cc(Cl)ccc2NC(=S)C1(C)C [Example 48]
MIC [1]: 0.04 µg/mL (≈ 0.136 µM)
IC50 [2]: 3.39 to 33.9 nM

CSCCON=C1c2cc(Cl)ccc2NC(=O)C1(C)C [Example 49]
IC50 [2]: 320 to 3200 nM

CSCCON=C1c2cc(Cl)ccc2NC(=S)C1(C)C [Example 50]
MIC [1]: 0.2 µg/mL (≈ 0.608 µM)
IC50 [2]: 30.4 to 304 nM

C#CCON=C1c2cc(Cl)ccc2NC(=O)C1(C)C [Example 51]
IC50 [2]: 36.1 to 361 nM

CCC(C)ON=C1c2cc(Cl)ccc2NC(=O)C1(C)C (stereo not drawn) [Example 52]
IC50 [2]: 33.9 to 339 nM

CC(C)=NN=C1c2cc(Cl)ccc2NC(=S)C1(C)C [Example 62]
MIC [1]: 0.04 µg/mL (≈ 0.136 µM)
IC50 [2]: 3.4 to 34 nM

CCC(C)ON=C1c2cc(Cl)ccc2NC(=S)C1(C)C (stereo not drawn) [Example 67]
MIC [1]: 0.04 µg/mL (≈ 0.129 µM)
IC50 [2]: 32.2 to 322 nM

CCON=C1c2cc(Cl)ccc2NC(=NO)C1(C)C [Example 70, anti-6-Chloro-3,3,-dimethyl-4-(ethyloxyimino)-2-hydroxyimino-1,3-dihydroquinoline]
IC50 [2]: 3.55 to 35.5 nM

CSc1ccc2c(c1)C(=NOC(C)C)C(C)(C)C(=O)N2 [Example 78]
IC50 [2]: 34.2 to 342 nM

CSc1ccc2c(c1)C(=NOC(C)C)C(C)(C)C(=S)N2 [Example 82]
MIC [1]: < 0.08 µg/mL
IC50 [2]: 32.4 to 324 nM

CC(C)ON=C1c2cc(OC(F)(F)F)ccc2NC(=S)C1(C)C [Example 87]
MIC [1]: 0.04 µg/mL (≈ 0.115 µM)
IC50 [2]: 28.9 to 289 nM

CCON=C1c2cc(Cc3ccncc3)ccc2NC(=O)C1(C)C [Example 103]
MIC [1]: 0.04 µg/mL (≈ 0.124 µM)
IC50 [2]: 30.9 to 309 nM

CCON=C1c2cc(Cc3ccncc3)ccc2NC(=S)C1(C)C [Example 104]
MIC [1]: 0.04 µg/mL (≈ 0.118 µM)
IC50 [2]: ~29.5 nM

CCON=C1c2cc(Cl)ccc2NC(=O)C12CCC2 [Example 114]
IC50 [2]: 21.5 nM

CCON=C1c2cc(Cl)ccc2NC(=S)C12CCC2 [Example 115]
MIC [1]: 0.04 µg/mL (≈ 0.136 µM)
IC50 [2]: 3.39 to 33.9 nM

CC(C)ON=C1c2cc(Cl)ccc2NC(=S)C12CCCC2 [Example 117]
IC50 [2]: 3.1 to 31 nM

CCC1(CC)C(=O)Nc2ccc(Cl)cc2C1=NOC(C)C [Example 119]
MIC [1]: 0.008 µg/mL (≈ 0.0259 µM)
IC50 [2]: 3.24 to 32.4 nM

CC(C)ON=C1c2cc(Cl)ccc2NC(=S)C12CCC2 [Example 120]
IC50 [2]: 3.24 to 32.4 nM

CCON=C1c2cc(Cl)ccc2NC(=S)C12CCCC2 [Example 122]
MIC [1]: 0.008 µg/mL (≈ 0.0259 µM)

CC(C)ON=C1c2cc(Cl)ccc2NC(=O)C12CCCC2 [Example 123]
IC50 [2]: 3.26 to 32.6 nM

CCON=C1c2cc(OCC)ccc2NC(=NO)C1(C)C [Example 124]
MIC [1]: 0.4 µg/mL (≈ 1.37 µM)
IC50 [2]: ~343 nM

CCON=C1c2cc(Cl)ccc2N=C(Nc2ccccc2)C1(C)C [Example 131]
MIC [1]: 1 µg/mL (≈ 2.93 µM)
IC50 [2]: 29.3 to 293 nM

CCON=C1c2cc(Cl)ccc2N=C(Nc2ccc(Cl)cc2)C1(C)C [Example 132]
IC50 [2]: ~266 nM

anti-6-Chloro-3,3-dimethyl-4-(isopropylazino)-1,3-dihydroquinolin-2-one [Example 12]
Reverse transcriptase assay IC50 [2]: 0.01 to 0.1 µg/mL
